Results: article PMC8476547, “Epigenetic derepression converts PPARγ into a druggable target in triple-negative and endocrine-resistant breast cancers” (Cell Death Discovery, 2021)

Columns and labels:
[1] = tested on: luciferase-labeled, triple-negative MDA-MB-231 cells; assay: Orthotopic mammary fat pad xenograft, bioluminescent tumor burden; assay type: in vivo, mouse; settings: day 28; LBH589 2.5 mg/kg, rosiglitazone 10 mg/kg or both, i.p. five days per week for four weeks; control 9.9 ± 6.2
Experimental: Female NCr nude mice (CrTac:NCr-Foxn1nu) aged 7 weeks were purchased from InVivos, Singapore. […] Mice were acclimatized to laboratory conditions for a minimum of 3 days prior to study initiation. All surgical procedures were performed under strict aseptic conditions according to the protocol approved by the SingHealth Institutional Animal Care and Use Committee (IACUC). […] A 1-cm incision was made at the abdominal mammary fat pad area. […] The incision was closed with wound clips (Stoelting Co, USA). To relieve post-surgical pain and prevent dehydration following surgery, 1 ml of 2 mg/ml meloxicam (Troy Ilium, Australia), diluted in 0.9% saline (B. Braun, Germany) was administered subcutaneously at the right flank of mice after surgery. Mice were recovered on a heating pad until fully awake from anesthesia before being returned to cages. Tumor growth was screened by imaging from the ventral view using the Xenogen IVIS system (Caliper Life Sciences, CA, USA). […] Bioluminescent signals around the tumor sites were identified and quantified as total photon counts using Living Image 4.2 software (Xenogen). […] The bodyweight of mice was measured prior to drug administration. Tumor growth was monitored twice a week using the Xenogen IVIS system throughout the entire 28 days of treatment. […]

[2] = Toxicity study in NCr nude mice; settings: LBH589 2.5 or 7.5 mg/kg, rosiglitazone 10 or 20 mg/kg, i.p. five days per week, three-week cycle
Experimental: (§1) A total of 39 mice were randomly assigned to 5 treatment groups with at least 7 animals in each group. Mice were treated with vehicle (10% DMSO), 2.5 mg/kg or 7.5 mg/kg of LBH589, 10 mg/kg, or 20 mg/kg of Rosiglitazone via i.p. injection five days per week. The animals were evaluated for changes in clinical signs (stooling, activity level, and body weight). Bodyweight was measured prior to dosing and mice were monitored regularly for any signs of distress after drug administration. All mice were humanely euthanized after 24 days.

Cellular IC50 of LBH589 = assay type: cell-based
MDA-MB-231 CAM tumor = assay: Chick chorioallantoic membrane (CAM) tumor vascularization, ultrasound imaging; assay type: in vivo; settings: single treatments, 48 h
Experimental: On Embryonic Day 3, a sharp weighted tool was used to poke a hole at the apex of the eggshell, and 3 mL of albumin was removed using a 5 ml syringe and 18G needle in order to drop the chick chorioallantoic membrane (CAM). The sharp-weighted tool was then used to poke a hole in the middle of the egg before using curved scissors to cut a 1cm2 hole. The eggs were screened, and dead embryos were removed.
On Embryonic Day 7, MDA-MB-231 cells were prepared for inoculation onto the CAM. DMEM was aspirated, cells were washed with PBS before the addition of 1 ml of 2.5 g/l Trypsin/EDTA solution onto the culture dish. The cells were then removed into a 15 ml Falcon tube and centrifuged for 3 min at 1200 rpm, before the supernatant was removed. Matrigel was added to the cell pellet on ice to resuspend the pellet, before the addition of 2 × 10^6 cells in a 50 µl of Matrigel-cell mixture onto CAM. […]
On Embryonic Day 10, the Tegaderm membrane was removed and Aquasonic gel was added onto the cling wrap which was carefully placed over the CAM. […] Tumor volumes and percentage vasculature were calculated by the Vevo Lab 1.7.0 programme.
Twenty microliters of single or combination treatments of LBH589 and rosiglitazone were added onto a 3.5 mm diameter autoclaved filter paper placed next to the formed tumor on the CAM. […] Percentage changes were calculated based on before and after drug treatment.

PPARγ [3] = assay: PPRE-luciferase reporter assay (PPARγ activity); assay type: cell-based, human; settings: MCF7, T47D, MDA-MB-231 and BT549 cells; 0, 50, 100 nM LBH589, 16 h
From the text: We took advantage of the fact that downstream genes targeted by this transcription factor contain peroxisome proliferator response elements (PPRE), where it binds. […] To provide assurance that the enhanced bioluminescence is attributable to PPARγ receptor activation rather than some off-target consequence of pan-HDAC inhibition, we repeated the luciferase assays but modified the experiments to eliminate the contribution of PPARγ (Supplementary Results: Part S2).

PPARγ [4] = assay: Immunoprecipitation of FLAG-tagged PPARγ, acetyl-lysine immunoblot; assay type: cell-based, human; settings: MCF7 cells, 50 nM LBH589, first hour; overall FLAG-tagged PPARγ unchanged
Experimental: For detection of acetylation of PPARγ, immunoprecipitation with PPARγ was performed. Cells were seeded at […] density and transfected with FLAG-tagged PPARγ before treatment with LBH589. Cells were harvested and cell pellets were lysed in immunoprecipitation (IP) lysis buffer (pH 8). Two hundred and fifty micrograms of proteins were pre-cleared with magnetic G beads (Millipore, Bedford, MA) for 1 h before rotating with 1 μg of FLAG antibody or normal rabbit IgG overnight at 4 °C. Magnetic G beads were added to the mixture the next day and rotated for 1.5 h. Magnetic-enriched IP samples were washed four times in cold wash buffer (200 mM Tris [pH 8.0], 100 mM NaCl, 0.5% NP-40, 2 mM DTT, 0.5 mM PMSF, 1 mM sodium orthovanadate, 1 μg/ml leupeptin, and 1 μg/ml aprotinin) at 10 min intervals. Samples were then boiled in 5× SDS loading buffer and subjected to SDS-PAGE. Proteins were then transferred to PVDF membranes and detected for acetyl-lysine.

PPARγ [5] = assay: PPARγ mRNA and protein expression (RT-PCR, western blot); assay type: cell-based, human; settings: MCF7 and MDA-MB-231, 50 nM LBH589, from the 3 h mark to 18 h
Experimental: Total RNA was isolated from cells using TRIZOL reagent (Invitrogen, Carlsbad, CA, USA), as described in the manufacturer’s instructions with a DNAse treatment step incorporated into the protocol. Each RT reaction contained 2.5 µg of total RNA, 1× RT buffer, 5 mM MgCl2, 425 µM each of dNTPs, 2 µM random hexamers, 0.35U/µl RNase inhibitor, and 1.1U/µl MultiScribe™ reverse transcriptase and made up to 10 µl with sterile water. The RT reaction was carried out at 37 °C for 1 h. Five microlitres of the 10 µl cDNA reaction volume were used in real-time quantitative PCR using ABI PRISM 7500 (Applied Biosystems, Foster City, CA, USA). Normalization was endogenous 18S. Fluorescence was measured with the Sequence Detection Systems 2.0 software. PCR was performed in multiplex (both target and endogenous control co-amplified in the same reaction) with distinct fluorescent dyes. Primers and probes for human 18S, human PPARγ, BIRC5, CyclinD1, VEGFA, and MnSOD were purchased from Applied Biosystems (Assays on Demand).

ERα = ERα receptor expression (western blot); assay type: cell-based, human; settings: ER-positive cell lines MCF7 and T47D
[6] = mouse, in vivo, ip, 7.5 mg/kg
Experimental: as §1

[7] = tested on: untransformed human breast epithelial cell lines MCF10A and MCF12A; assay: PPARγ expression, activity and cell viability in normal breast epithelial cells; settings: 0, 50, 100 nM LBH589, 24 h
Experimental: Whole-cell lysates were prepared with RIPA lysis buffer containing 10 mM Tris-HCL pH7.4, 30 mM NaCl, 1 mM EDTA, 1% Nonidet P-40, supplemented with 1 mM sodium orthovanadate (Na3VO4), 1 µg/ml leupeptin, 1 µg/ml pepstatin A, 1 µg/ml aprotinin, and 1 mM PMSF before use. […] Thereafter, proteins were transferred onto nitrocellulose membranes, blocked for 1 h at room temperature with 5% non-fat milk, and incubated overnight at 4 °C with the primary antibody. After probing with a secondary antibody for 1 h at 25 °C, protein bands were detected by using the Supersignal West Pico Chemiluminescent substrate kit. β-actin antibody was used as a loading control.
The luciferase reporter construct used was pPPRE-tk-Luc, which contains three PPREs from the rat acyl-CoA oxidase promoter under the control of the Herpes simplex virus thymidine kinase promoter (kind gift from Dr. Ronald M. Evans, The Salk Institute for Biological Studies, San Diego, CA, USA). 3× PPRE promoter activities were assessed with a dual-luciferase assay kit. […] Ten microlitres of cell lysate were then added to 50 μl of the luciferase substrate solution, following which 50 μl of stop and glow buffer was added for Renilla reading. Bioluminescence generated was measured using a Sirius luminometer (Berthold, Munich, Germany). The luminescence readings obtained were normalized to the protein content of the corresponding cell lysate. […]

CN(CCOc1ccc(CC2SC(=O)NC2=O)cc1)c1ccccn1 (stereo not drawn) [rosiglitazone]
relative tumor burden (fold change in bioluminescent signal normalized to pre-treatment radiance levels) [1]: 5.3 ± 0.8 fold
loss of original bodyweight [2]: ≤ 10%

Cc1[nH]c2ccccc2c1CCNCc1ccc(/C=C/C(=O)NO)cc1 [LBH589]
relative tumor burden (fold change in bioluminescent signal normalized to pre-treatment radiance levels) [1]: 5.8 ± 3.7 fold
IC50 (Cellular IC50 of LBH589): 50 nM
CAM tumor volume / tumor size compared to DMSO control (MDA-MB-231 CAM tumor): did not have any significant effects
changes in CAM vascular volumes compared to DMSO (MDA-MB-231 CAM tumor): No significant changes
PPRE-luciferase reporter activity (PPARγ [3]): dose-dependently enhanced
acetylated PPARγ (PPARγ [4]): marked initial accumulation
intracellular PPARγ mRNA and protein (PPARγ [5]): steady and gradual rise
ERα receptor expression (ERα): dose-dependently suppressed
clinical signs (weight gain, stooling) compared to lower dosage or placebo [6]: less weight gain and softer stools
PPARγ expression and activity [7]: did not upregulate PPARγ expression or augment its activity
